According to patent US9084424B2, “N-benzyl heterocyclic carboxamides” (BAYER INTELLECTUAL PROPERTY GMBH, priority 2010, dated 2015):

What was measured:
Sphaerotheca fuliginea = assay: In vivo preventive test on Sphaerotheca fuliginea (cucumber); conditions: preventive spray, 500 ppm of active ingredient, evaluated 7 days after inoculation
Procedure: In Vivo Preventive Test on Sphaerotheca fuliginea (Cucumber)
(§1) Solvent: 49 parts by weight of N,N-dimethylformamide
(§2) Emulsifier: 1 part by weight of alkylarylpolyglycolether
(§3) To produce a suitable preparation of active compound, 1 part by weight of active compound is mixed with the stated amounts of solvent and emulsifier, and the concentrate is diluted with water to the desired concentration.
To test for preventive activity, young plants are sprayed with the preparation of active compound at the stated rate of application. After the spray coating has dried on, the plants are inoculated with an aqueous spore suspension of Sphaerotheca fuliginea. The plants are then placed in a greenhouse at approximately 23° C. and a relative atmospheric humidity of approximately 70%.
The test is evaluated 7 days after the inoculation. 0% means an efficacy which corresponds to that of the untreated control, while an efficacy of 100% means that no disease is observed.

Pyrenophora teres = assay: In vivo preventive test on Pyrenophora teres (barley); conditions: preventive spray, 500 ppm of active ingredient, evaluated 7-9 days after inoculation
Procedure: In Vivo Preventive Test on Pyrenophora teres (Barley)
Solvent: 49 parts by weight of N,N-dimethylacetamid
(§4) Emulsifier: 1 part by weight of alkylaryl polyglycol ether
as §3
(§5) To test for preventive activity, young plants are sprayed with the preparation of active compound at the stated rate of application. One day after this treatment, the plants are inoculated with an aqueous spore suspension of Pyrenophora teres. The plants remain for 48 hours in an incubation cabinet at 22° C. and a relative atmospheric humidity of 100%. Then the plants are placed in a greenhouse at a temperature of approximately 20° C. and a relative atmospheric humidity of approximately 80%.
The test is evaluated 7-9 days after the inoculation. 0% means an efficacy which corresponds to that of the untreated control while an efficacy of 100% means that no disease is observed.

Alternaria solani = assay: In vivo preventive test on Alternaria solani (tomato); conditions: preventive spray, 500 ppm of active ingredient, evaluated 7 days after inoculation
Procedure: In Vivo Preventive Test on Alternaria Solani (Tomato)
as §1, §2, §3
To test for preventive activity, young plants are sprayed with the preparation of active compound at the stated rate of application. One day after this treatment, the plants are inoculated with an aqueous spore suspension of Alternaria solani. The plants remain for one day in an incubation cabinet at approximately 22° C. and a relative atmospheric humidity of 100%. Then the plants are placed in an incubation cabinet at approximately 20° C. and a relative atmospheric humidity of 96%.
The test is evaluated 7 days after the inoculation. 0% means an efficacy which corresponds to that of the untreated control while an efficacy of 100% means that no disease is observed.

[1] = log P by HPLC on reversed-phase column (EEC Directive 79/831 Annex V.A8); assay type: physicochemical; conditions: 0.1% aqueous formic acid and acetonitrile, linear gradient 10% to 90% acetonitrile
Procedure: In table 1, the log P values were determined in accordance with EEC Directive 79/831 Annex V.A8 by HPLC (High Performance Liquid Chromatography) on a reversed-phase column (C 18), using the method described below: Temperature: 40° C.; Mobile phases: 0.1% aqueous formic acid and acetonitrile; linear gradient from 10% acetonitrile to 90% acetonitrile. Calibration was carried out using unbranched alkan-2-ones (comprising 3 to 16 carbon atoms) with known log P values (determination of the log P values by the retention times using linear interpolation between two successive alkanones). lambda-max-values were determined using UV-spectra from 200 nm to 400 nm and the peak values of the chromatographic signals.

Leptosphaeria nodorum = assay: In vivo preventive test on Leptosphaeria nodorum (wheat); conditions: preventive spray, 500 ppm of active ingredient, evaluated 7-9 days after inoculation
Procedure: In Vivo Preventive Test on Leptosphaeria nodorum (Wheat)
Solvent: 49 parts by weight of N,N-dimethylacetamide
as §4, §3
as §5, with “with a” for “with the”, “of Leptosphaeria nodorum.” for “of Pyrenophora teres.”, “approximately 22°” for “approximately 20°”, “approximately 90%.” for “approximately 80%.”
The test is evaluated 7-9 days after the inoculation. 0% means an efficacy which corresponds to that of the untreated control, while an efficacy of 100% means that no disease is observed.
Under these conditions, good (at least 70%) to excellent protection (at least 95%) is observed at a dose of 500 ppm of active ingredient with the following compounds from table D: […]

[2] = HPLC, reversed-phase C 18, 40° C.
[3] = HPLC on reversed-phase column (C 18), 40° C.

logP [1, 2]	logP [1, 3]	SMILES	Efficacy (Sphaerotheca fuliginea) [%]	Efficacy (Pyrenophora teres) [%]	Efficacy (Alternaria solani) [%]	Efficacy (Leptosphaeria nodorum) [%]
4.39		CC(NC(=O)c1c(C(F)F)nn(C)c1Cl)c1cc(Cl)ccc1Cl (stereo not shown) [Example 50]	98	95	95	
3.63		CCc1ccccc1CN(C(=O)c1c(C(F)F)nn(C)c1F)C1CCC1 [Example 12]	95	100	90	
3.22		CCN(Cc1c(Cl)cccc1C(F)(F)F)C(=O)c1c(C(F)F)nn(C)c1F [Example 91]	95	95	100	
	4.44	CC(c1ncc(Cl)cc1Cl)N(C(=O)c1c(C(F)F)nn(C)c1F)C1CCCC1 (stereo not shown) [Example 187]		90		80
3.89		Cn1nc(C(F)F)c(C(=O)NC2(c3ccc(Cl)cc3Cl)CC2)c1F [Example 38]	89	95	94	
4.39		CC(NC(=O)c1c(C(F)F)nn(C)c1F)c1cc(Cl)ccc1Cl (stereo not shown) [Example 53]	95	95	94	
4.39		CC(NC(=O)c1c(C(F)F)nn(C)c1F)c1ccc(Cl)cc1Cl (stereo not shown) [Example 36]	93	100	94	
2.96		CC(NC(=O)c1c(C(F)F)nn(C)c1F)c1ccccc1C(F)(F)F (stereo not shown) [Example 84]	90	100	100	
3.90		CC(C)c1ccccc1CN(C(=O)c1c(C(F)F)nn(C)c1F)C1CCC1 [Example 70]	100	100	90	
	3.48	CC(NC(=O)c1c(C(F)F)nn(C)c1Cl)c1ncc(C(F)(F)F)cc1Cl (racemic) [Example 177]	93	100	90	
	3.58	Cn1nc(C(F)F)c(C(=O)NCc2ccc(C(C)(C)C)cc2)c1Cl [Example 136]				70
2.81		CCc1ccccc1CN(C)C(=O)c1c(C(F)F)nn(C)c1F [Example 15]	83	95	95	
2.92		CC(NC(=O)c1c(C(F)F)nn(C)c1Cl)c1ccccc1Cl (racemic) [Example 20]	94	95	95	
3.11		CC(NC(=O)c1c(C(F)F)nn(C)c1Cl)c1ccccc1C(F)(F)F (stereo not shown) [Example 82]	94	95	100	
	3.46	CC(NC(=O)c1c(C(F)F)nn(C)c1F)c1ccc(-c2ccccc2)cc1 (racemic) [Example 169]	89	100	94	
	3.42	Cn1nc(C(F)F)c(C(=O)NCc2ccc(C(C)(C)C)cc2)c1F [Example 135]				75
3.10		C#CCN(Cc1ccccc1CC)C(=O)c1c(C(F)F)nn(C)c1F [Example 17]	94	100	80	
3.33		CC(c1cc(Cl)ccc1Cl)N(C)C(=O)c1c(C(F)F)nn(C)c1Cl (stereo not shown) [Example 55]	83	100	95	

logP [1, 2]	logP [1, 3]	SMILES	Efficacy (Sphaerotheca fuliginea) [%]	Efficacy (Pyrenophora teres) [%]	Efficacy (Alternaria solani) [%]	Efficacy (Leptosphaeria nodorum) [%]
4.19		Cn1nc(C(F)F)c(C(=O)NC(c2ccc(Cl)cc2Cl)C(F)(F)F)c1F (stereo not shown) [Example 40]	83	95	94	
2.92		Cn1nc(C(F)F)c(C(=O)NC(C)(C)c2ccccc2Cl)c1F [Example 26]	88		94	
	3.65	CC(c1cc(Cl)cc(Cl)c1)N(C)C(=O)c1c(C(F)F)nn(C)c1Cl (stereo not shown) [Example 116]	75	100	95	
3.13		CCc1ccccc1CN(CC)C(=O)c1c(C(F)F)nn(C)c1F [Example 13]	90	95	95	
3.33		Cn1nc(C(F)F)c(C(=O)NC(c2ccccc2Cl)C(F)(F)F)c1Cl (racemic) [Example 19]	84		90	
3.49		CC(C)c1ccccc1CN(CC(F)F)C(=O)c1c(C(F)F)nn(C)c1F [Example 78]	93	100	100	
	3.65	Cn1nc(C(F)F)c(C(=O)NC2(c3cccc(C(F)(F)F)c3)CCCC2)c1F [Example 108]	85	94		
3.78		CN(Cc1ccccc1[Si](C)(C)C)C(=O)c1c(C(F)F)nn(C)c1F [Example 103]	91	70	90	
3.37		C#CCN(Cc1ccccc1C(C)C)C(=O)c1c(C(F)F)nn(C)c1F [Example 73]	98	100	95	
2.78		Cn1nc(C(F)F)c(C(=O)NCc2ccccc2C2CC2)c1F [Example 65]	85	94	90	
	3.19	CC(NC(=O)c1c(C(F)F)nn(C)c1F)c1ncc(C(F)(F)F)cc1Cl (racemic) [Example 175]	95	100	95	
	3.79	CCC(NC(=O)c1c(C(F)F)nn(C)c1Cl)c1ccc(Cl)cc1Cl (stereo not shown) [Example 191]	100	100	95	
	3.61	CCC(NC(=O)c1c(C(F)F)nn(C)c1F)c1ccc(Cl)cc1Cl (stereo not shown) [Example 192]	100	100	95	
	3.73	Cn1nc(C(F)F)c(C(=O)NC(C)(C)c2cc(Cl)cc(Cl)c2)c1Cl [Example 112]	95	95	80	
	3.27	Cn1nc(C(F)F)c(C(=O)NC2(c3ccc(Cl)c(C(F)(F)F)c3)CC2)c1F [Example 125]	100	95		
3.66		C=CCN(Cc1ccccc1C(C)C)C(=O)c1c(C(F)F)nn(C)c1F [Example 71]	91	95	95	
4.39		CC(NC(=O)c1c(C(F)F)nn(C)c1Cl)c1ccc(Cl)cc1Cl (stereo not shown) [Example 33]	96	100	95	
	3.41	CC(NC(=O)c1c(C(F)F)nn(C)c1F)c1ccc(OCc2ccccc2)cc1 (racemic) [Example 162]	88	100	100	

SMILES	logP [1, 2]	logP [1, 3]	Efficacy (Sphaerotheca fuliginea) [%]	Efficacy (Pyrenophora teres) [%]	Efficacy (Alternaria solani) [%]	Efficacy (Leptosphaeria nodorum) [%]
CC(NC(=O)c1c(C(F)F)nn(C)c1F)c1ccccc1Cl (racemic) [Example 24]	2.75		89	100	94	
